In ChEMBL document CHEMBL5357051, “Quinoline, Indole, and Isogranatanine Alkaloids from Malayan Leuconotis eugeniifolia” (J Nat Prod, 2024):
pIC50: −log10 of the molar value.

Key:
[1] = test system: HCT-116; assay: Cytotoxicity against human HCT-116 cells assessed as inhibition of cell growth incubated for 72 hrs by MTT assay; type: functional, cell-based; conditions: HCT-116, 72 h
[2] = test system: HT-29; assay: Cytotoxicity against human HT-29 cells assessed as inhibition of cell growth incubated for 72 hrs by MTT assay; type: functional, cell-based; conditions: HT-29, 72 h

CC[C@@]12CCC[N+]3([O-])CC[C@@]4(C(=Nc5ccccc54)[C@@H](O)C1)[C@@H]23 (stereo partly specified)
pIC50 [1]: < 5.00 | pIC50 [2]: < 5.00

CC[C@]1(CCC(=O)OC)CCCNC1
pIC50 [1]: < 5.00 | pIC50 [2]: < 5.00

CC[C@@]12CCO[C@@H]1N(CC[C@]1(O)C(=O)Nc3ccccc31)CC[C@H]2O
pIC50 [1]: < 5.00 | pIC50 [2]: < 5.00

COC(=O)[C@H]1CO[C@H](C)[C@]2(O)C[N@+]3([O-])CCc4c([nH]c5ccccc45)[C@@H]3C[C@H]12
pIC50 [1]: < 5.00 | pIC50 [2]: < 5.00

CC[C@@]12CCC[N@@+]3([O-])C[C@@H]4[C@@](O)(c5ccccc5N[C@]4(O)CC1)[C@@H]23
pIC50 [1]: < 5.00 | pIC50 [2]: 5.15

CC[C@]12CCCN[C@]13/C(=C\C(=O)O)c1ccccc1N3C(=O)CC2
pIC50 [1]: < 5.00 | pIC50 [2]: < 5.00

CC[C@]12CCCN(C1)C(=O)CC2
pIC50 [1]: < 5.00 | pIC50 [2]: 5.14

COc1cccc2c1C(=O)c1c(O)c3c(c(O)c1C2=O)C[C@@](O)(C(=O)CO)C[C@@H]3O[C@H]1C[C@H](N)[C@H](O)[C@H](C)O1 [DOXORUBICIN]
pIC50 [1]: 7.40 | pIC50 [2]: 7.22
